In patent US9464106B2, “Oligonucleotides useful for detecting and analyzing nucleic acids of interest” (Exiqon A/S, priority 2002, dated 2016):
l = locked nucleic acid (LNA); [5mC] = 5-methylcytosine; d = 2'-deoxy (DNA)

The substances below were run on yeast HSP78 (YDR258C) sequence (assay: Duplex melting temperatures of HSP78 25-mer capture probes (UV spectrophotometer)). Conditions: 25-mer capture probe duplex with complementary target; design PM = perfectly matched, MM = single mismatch; DNA, LNA_T (T) or LNA_TC (TC) substituted.

Row | Substance | Average duplex melting temp. [°C]
1 | 12719 (DNA AGACGTACAGCAACAGAAATAGCAG; sugars from the 5' end d5 l1 d13 l1 d5, backbone not given here) [compound 12719] | 65
2 | 12720 (DNA TTTGGTAGCACGTCAAGCTTAGTAT; sugars from the 5' end lllddlddddddddddddllddldd, backbone not given here) [compound 12720] | 68.6
3 | 12721 (DNA ATAAAGCTGGCAAAAGGTCTCTTTT; sugars from the 5' end dldddddldddddddddldldllld, backbone not given here) [compound 12721] | 67.2
4 | 12722 (DNA TTTTTCGGCCAATCGATCTTGAATT; sugars from the 5' end ldllldddddddddddldlldddld, backbone not given here) [compound 12722] | 65.9
5 | 12723 (DNA CACTCTAACAGTATCGCCGTTTCTA; sugars from the 5' end dddldldddddddddddddllldld, backbone not given here) [compound 12723] | 69.7
6 | 12724 (DNA TCAATGGCCTTGGACCATATAATTG; DNA at ACG, LNA at T, backbone not given here) [compound 12724] | 69.7
7 | 12725 (DNA AAAACGACAGCAAAAGGCTTTCTTC; sugars from the 5' end d18 l3 d1 l2 d1, backbone not given here) [compound 12725] | 65.9
8 | 12726 (DNA ATTGACCTCAAATCTTTCTTGGATA; sugars from the 5' end dllddddlddddddllldlldddld, backbone not given here) [compound 12726] | 65.1
9 | 12727 (DNA CCCAACTTTGTGACGTTTAATAAAA; DNA at ACG, LNA at T, backbone not given here) [compound 12727] | 66.5
10 | 12728 (DNA ACCATCATCACCCAACCTTGTGTCG; sugars from the 5' end dlddlddldddddddddlddlddld, [5mC] at 2, 24, backbone not given here) [compound 12728] | 70.2
11 | 12729 (DNA CAATGATCGTGTTACGGAAATCAAC; sugars from the 5' end lddlddlldlddddldddddllddd, [5mC] at 1, 8, 15, 22, backbone not given here; further chemistry not fully specified) [compound 12729] | 75.5
12 | 12730 (DNA TGGCCTAGGGAAACGGTCAGCTTAC; sugars from the 5' end lddldlddddddddddldddldldd, [5mC] at 4, 21, backbone not given here) [compound 12730] | 75.5
13 | 12731 (DNA TTGGAAACATCGCGGTGCGCTTTTT; sugars from the 5' end lldddddlddlddddldldddldld, [5mC] at 8, 11, 18, backbone not given here) [compound 12731] | 72
14 | 12732 (DNA GAAACATCGGGGAGCGCTTTTTCAA; sugars from the 5' end ddddldllddddddldddddldldd, [5mC] at 5, 8, 15, 23, backbone not given here) [compound 12732] | 74.8
15 | 12733 (DNA GACAGCCTCAGTAAATTGGCCACCA; sugars from the 5' end ddlddldldddddddlldddlddld, [5mC] at 3, 6, 21, 24, backbone not given here) [compound 12733] | 77.4
16 | 12734 (DNA CCGATTAAACGACAGACAGTATGCT; sugars from the 5' end llddlldddlddddddlddldldld, [5mC] at 1, 2, 10, 17, 24, backbone not given here) [compound 12734] | 70.2
